Consider 2 compounds from patent publication US20230339835A1, “2,3,5-TRIMETHYL-6-NONYLCYCLOHEXA-2,5-DIENE-1,4-DIONE FOR SUPPRESSING AND TREATING ALPHA-SYNUCLEINOPATHIES, TAUOPATHIES, AND OTHER DISORDERS” (PTC THERAPEUTICS, INC., priority 2018, published 2023).

SMILES strings stand for the structures. Converted amounts (≈) assume the structure as drawn. Marks after values point to notes of the source that are not given here.

The nature of series [1]: Solubility in simulated fluids and water. In kind it is physicochemical. The method, then: Solubility of Pattern A and melted solid was assessed in Fasted-State Simulated Gastric Fluid (FaSSGF), Fed-State Simulated Intestinal Fluid (FeSSIF), and Fasted-State Simulated Intestinal Fluid (FaSSIF), water, and 0.5% methyl cellulose+2% Tween80 in water. Five foil-covered 4 mL vials were prepared with 11-13 mg of as-received material (ID-1-1), 10 mm stir bars were included. Five foil-covered 4 mL vials containing between 11-13 mg of C9 were melted on a hot plate at 70° C. for 10 min and cooled to room temperature for 5 min, 10 mm stir bars were included.
Slurries were prepared with the as-received material ID-1-1 (Pattern A) and melted C9, each in 2.5 mL of simulated fluids (including 0.5% methyl cellulose+2% Tween80 in water), or water. The samples containing melted active pharmaceutical ingredient (API) were sonicated briefly, as they appeared to contain clumps of material. […] For solubility analysis 1 mL of each sample was pipetted into a syringe filter, the first 0.5 mL was filtered back into the source vial and the remaining 0.5 mL was filtered into HPLC vials with low volume inserts.
The response factor calculated with the calibration points was used to determine the concentrations of API in the simulated fluids and water. Calibration samples were prepared with as-received material (ID-1-1) in ACN. The concentrations and peak areas for each calibration point were plotted and a response factor calculated for solubility assessment.
Due to high pressures observed with the UPLC column, a different column and a modified method was employed for 24 h data points with 0.5% methyl cellulose+2% Tween80 in water, and 24 h in water (ID-30-4, ID-30-9 and ID-30-10). HPLC samples of ID-30-4 and 30-9 (those containing the methyl cellulose/Tween80 mixture) were diluted 10× with ACN. These samples plus a new set of injections of the calibration points were analyzed, a new response factor was determined, and the solubility of the remaining samples was calculated (response factor: 8084.7908; R2: 0.9989).

Series [2] can be described thus: Solid form stability, one week at 75% RH and 40° C. The following applies: 7 days, 75% relative humidity. In kind it is physicochemical. The method, then:
The solid form stability of the material was assessed over one week. 49.0 mg of ID-1-1 was placed inside of a foil-covered 4 mL vial, which was covered with a KimWipe. This vial was placed inside a 20 mL vial containing saturated aqueous sodium chloride. The vial was placed on a hot plate at 40° C. for 7 days, creating an atmosphere of 75% relative humidity in the system. After 7 days, the solid was sampled for HPLC (ID-4-1).
A sample of the stressed material was plated and analyzed by XRPD; the observed pattern was Pattern A. The XRPD data is shown in FIG. 16. Microscopy images of ID-4-1 were captured at 100× and 400× magnification. The images are shown in FIG. 17A (100×) and FIG. 17B (400×).

The nature of series [3]: Humidification cycling by dynamic vapor sorption (DVS). In kind it is physicochemical. How it is done: As-received material (ID 1-1) was subjected to humidification cycling by dynamic vapor sorption (DVS) instrument. The material underwent a 0.01% change in mass in the 15-75% relative humidity range, and a 0.08% change in mass over the full range of 2-95% relative humidity. Following humidification cycling, the solid was analyzed by XRPD.

The test system of series [4] is C57Bl/6 mice, MPTP-induced model of PD. The experiment in a line: Mouse MPTP model of Parkinson's Disease, open field locomotor assay. In kind it is in vivo. The following applies: MPTP 60 mg/kg (3 x 20 mg/kg at two-hour intervals). From the text:
Animals. Species: Mouse. Strain: C57Bl/6. Source of Animals: Charles River. Age: 6 to 7 weeks. Sex: Male. Randomization: Animals were assigned randomly to treatment groups. Blinding of Study: Experimenters were blinded to the experimental treatments
Housing and Feeding. Acclimation/Conditioning: Not less than three days. Housing: Mice were housed on a 12 hr light/dark cycle (lights on 6:00 AM) No more than 4 mice per cage. Ventilated cage rack system. Diet: Standard rodent chow and water ad libitum.
Design Parameters. Route(s) of administration: PO. Dose Volume: PO: 5 mL/kg. Formulation(s): formulated by Melior according to directions from BioElectron. Vehicle-sesame oil (Spectrum Chemical, NF Catalog #SE130, CAS #8008-74-0). Dose Levels: 300 mg/kg. Dose Frequency: QD starting Day −2 (MPTP=Day 0) and until Day 7. Study duration: 11 days. Pretreatment time (up to 2 hrs): For Day 0 (MPTP Day): 30 min, Pretreatment time for Open Field Assay/Locomotor Activity (OFA/LMA) assay: 1 hr. Number of Groups: 3. Number of animals per group: 10. Total number of animals: 30 (in the study), 42 animals total (To ensure a proper power analysis of at least 10 animals/group, for all groups receiving MPTP, 4 additional animals were added to mitigate study impacts if there were MPTP-induced fatalities).
MPTP Treatment. MPTP was formulated in phosphate buffered saline and administered to mice three times at a dose of 20 mg/kg (1 mg/mL delivered at 20 mL/kg) at two-hour intervals (final dose of MPTP=60 mg/kg).
Locomotor activity. One day prior (baseline) and on Day 7 after MPTP administration (Day (−1) and Day 7), mice were monitored for various aspects of locomotor function using a fully automated open-field apparatus (Med-Associates, Inc). The apparatus consisted of a 10.75″×10.75″ arena enclosed in a sound-attenuated box, equipped with the fan and house light. […]
Data analysis. Data were averaged and are expressed as the average±SEM.
Data were analyzed by one-way ANOVA followed by a post-hoc tests. p-values of less than 0.05 were considered to be statistically significant from control.

The term Solubility denotes the dissolved amount per volume that the medium holds. In the case of `CCCCCCCCCC1=C(C)C(=O)C(C)=C(C)C1=O` [Pattern A, 2,3,5-trimethyl-6-nonylcyclohexa-2,5-diene-1,4-dione], the “Solubility at 24 hours” value was 310 µg/mL in series [1] (0.5% MC + 2% Tween80 (aq), Phenomenex Luna Phenyl Hexyl HPLC column and modified method); 200 µg/mL (≈ 724 µM) in series [1] (FeSSIF). Further, the “Solubility at 24 hours (mg/mL)” value in series [1] (0.5% MC + 2% Tween80 (aq), Phenomenex Luna Phenyl Hexyl HPLC column and modified method, listed as A) is listed as 0.31# mg/mL; in series [1] (FaSSGF), “BDL”; in series [1] (FaSSIF), “BDL”; in series [1] (water), “BDL”. The “Conc. (mg/mL) at 30 min” value in series [1] (0.5% MC + 2% Tween80 (aq.)) is on record as 0.53 mg/mL; in series [1] (FaSSGF), “BDL”; in series [1] (FaSSIF) it was 0.01 mg/mL; in series [1] (FeSSIF), 0.29 mg/mL; in series [1] (water) it was “BDL”. Further, the “XRPD pattern of stressed material” value in series [2] is given as “Pattern A”. Also, in series [2], the “impurities by HPLC in stability sample” value is “did not show any impurities”. For the same compound, the “DVS Change Mass (wt. %)” value in series [3] (2-95% RH) amounted to 0.08 wt. %; in series [3] (15-75% RH), 0.01 wt. %. In addition, the “change in mass (DVS)” value was 0.01% in series [3] (15-75% relative humidity range) and 0.08% in series [3] (full range of 2-95% relative humidity). Moreover, in series [3] (DVS humidification cycling), the hygroscopicity entry is on record as “not hygroscopic”.

With `CN1CC=C(c2ccccc2)CC1` [MPTP, 1-methyl-4-phenyl-1,2,3,6-tetrahydropyridine, reference compound], the “depletion of dopamine in the striatum” value in series [4] is around 74%.
